Target: T1, TRPC5 (Homo sapiens, UniProt Q9UL62)
T1 construct: expressed in transfected cells; host or cells: HEK 293
T1 sequence (Q9UL62 1-973): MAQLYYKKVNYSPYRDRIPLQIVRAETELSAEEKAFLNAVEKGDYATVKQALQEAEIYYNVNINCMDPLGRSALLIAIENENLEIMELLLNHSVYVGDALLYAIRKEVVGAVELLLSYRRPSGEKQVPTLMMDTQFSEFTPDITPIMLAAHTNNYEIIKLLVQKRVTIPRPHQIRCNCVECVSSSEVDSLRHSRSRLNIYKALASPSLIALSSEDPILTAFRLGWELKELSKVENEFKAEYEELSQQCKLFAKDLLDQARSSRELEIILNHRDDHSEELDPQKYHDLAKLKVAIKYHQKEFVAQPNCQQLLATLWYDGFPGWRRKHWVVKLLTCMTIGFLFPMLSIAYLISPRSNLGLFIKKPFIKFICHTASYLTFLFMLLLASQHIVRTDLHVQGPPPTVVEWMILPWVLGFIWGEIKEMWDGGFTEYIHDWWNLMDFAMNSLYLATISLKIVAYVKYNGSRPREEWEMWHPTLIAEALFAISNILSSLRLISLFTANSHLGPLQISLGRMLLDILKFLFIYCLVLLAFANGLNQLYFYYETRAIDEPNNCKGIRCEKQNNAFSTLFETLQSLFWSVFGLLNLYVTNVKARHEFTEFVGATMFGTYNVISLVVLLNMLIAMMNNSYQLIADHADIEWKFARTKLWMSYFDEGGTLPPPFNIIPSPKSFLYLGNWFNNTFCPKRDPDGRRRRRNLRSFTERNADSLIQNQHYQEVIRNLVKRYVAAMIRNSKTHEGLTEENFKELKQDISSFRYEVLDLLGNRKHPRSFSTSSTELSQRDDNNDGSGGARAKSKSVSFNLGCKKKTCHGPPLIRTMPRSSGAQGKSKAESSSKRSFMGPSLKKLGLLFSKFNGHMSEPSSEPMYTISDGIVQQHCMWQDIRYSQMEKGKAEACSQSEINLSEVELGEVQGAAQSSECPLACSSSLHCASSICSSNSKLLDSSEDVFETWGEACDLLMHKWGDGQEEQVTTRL
Assay: TRPC5 Fluorescence Assay - FLIPR format (HEK-TREx hTRPC5, Riluzole stimulation)
Type: cell-based
Settings: Table 7, read-out: TRPC5-FLIPR IC50
Procedure: • Cell line: ICLN-001633 • Base Cell: HEK • Channel: TRPC5 • Species: Human • Thaw ID: multiple • Passage: multiple
FLIPR Assay Buffer (Earls Balanced Salt Solution (EBSS) was prepared as follows:
Test Agent Preparation: Compounds were made up to, or supplied as, a 10 mM stock solution generally using DMSO as the vehicle. 10-point dose response curves were generated using the Echo-550 acoustic dispenser. Compound source plates were made by serially diluting compound stocks to create 10 mM, 1 mM, and 0.1 mM solutions in DMSO into Echo certified LDV plates. The Echo then serially spotted 100% DMSO stock solutions into source dose response plates to generate a 4-fold dilution scheme. 100% DMSO was added to the spotted dose response plates to bring the final volume to 5 μl. […] of the dose response stock plate was then spotted into pre-incubation and stimulation assay plates. 50 μl of pre-incubation buffer and 100 μl of stimulation buffer was then added to the plates resulting in a final assay test concentration range of 30 μM to 0.0001 μM with a final DMSO concentration of 0.3%.
Experimental Methods: Cells expressing TRPC5 (HEK-TREx hTRPC5) are plated onto 384 well, black PDL-coated microplates and maintained in TRPC5 growth media the day prior to use for experiments. TRPC5 expression is induced by the application of […] tetracycline at the time of plating. Media is removed from the plates and 10 μl of 4 μM of Fluo-4 AM (mixed with equal volume of Pluronic F-127) in EBSS is added to the cells. Cells are incubated at room temperature, protected from light, for 60-90 minutes. After the incubation period, the dye is removed and replaced with 10 μl of EBSS. Cell, pre-incubation and stimulation plates are loaded onto the FLIPR-II and the assay is initiated. The FLIPR measures a 10 second baseline and then adds 10 μl of 2× compounds (or controls). Changes in fluorescence are monitored for an additional 5 minutes. After the 5 minute pre-incubation, 20 μl of 2× Riluzole (with 1× compound or controls) is added to the cell plate. The final Riluzole stimulation concentration in the assay is 30 μM. After the Riluzole addition, changes in fluorescence are monitored for an additional 5 minutes.
Test Agent Effect: Test agent modulation of TRPC5 calcium response was determined as follows. After the Riluzole, fluorescence was monitored for a 5 minute period. The maximum relative fluorescene response (minus the control response of 1 μM of the control inhibitor) was captured and exported from the FLIPR. Test agent effect was calculated as % inhibition using the following formula: % inhibition=((RFU Test Agent−Plate Average RFU REF INHIB)/(Plate Average RFU Control−Plate Average RFU REF INHIB))×100

SMILES | IC50
COCc1ncccc1CN1CCN(c2cn[nH]c(=O)c2Cl)CC1 [drawing 926] | 0.01 to 1000 nM
CCCCn1c(Oc2cccc(F)c2)nc2c1CCN(c1cn[nH]c(=O)c1Cl)C2 | 1000 to 5000 nM
O=c1[nH]ncc(N2CCc3c(c(=O)[nH]n3Cc3ccccc3C(F)F)C2)c1Cl [drawing 936] | 0.01 to 1000 nM
CN(C)C(=O)c1nn(Cc2ccccc2C(F)F)c2c1CN(c1cn[nH]c(=O)c1Cl)CC2 | 0.01 to 1000 nM

Same assay, conditions: Table 9, read-out: hTRPCS-FLIPR IC50

SMILES | IC50
O=c1[nH]ncc(N2CCN(S(=O)(=O)Cc3ccccc3C(F)(F)F)CC2)c1Cl | 1000 to 5000 nM
O=C(CN1CCN(c2cn[nH]c(=O)c2Cl)CC1)c1ccccc1C(F)(F)F | 1000 to 5000 nM
Cc1ccccc1CC1(OC(N)=O)CCN(c2cn[nH]c(=O)c2Cl)CC1 | 1000 to 5000 nM
CCn1nnc(C)c1CN1CCN(c2cn[nH]c(=O)c2Cl)CC1 | 1000 to 5000 nM
CCc1ncccc1[C@@H](C(C)C)N1CCN(c2cn[nH]c(=O)c2Cl)CC1 | 0.01 to 1000 nM
C[C@@H](O)c1ncccc1CN1CCN(c2cn[nH]c(=O)c2Cl)CC1 | 1000 to 5000 nM
NC(=O)C1(Cc2ccccc2C(F)(F)F)CCN(c2cn[nH]c(=O)c2Cl)CC1 | 1000 to 5000 nM
C[C@@H]1CN([C@@H](C)c2ccc(F)cc2C(F)(F)F)C(=O)CN1c1cn[nH]c(=O)c1Cl | 0.01 to 1000 nM
CC[C@@H](c1cccnc1CC(C)C)C1CCN(c2cn[nH]c(=O)c2Cl)CC1 | 0.01 to 1000 nM
CCc1ncccc1[C@H](C(C)C)N1CCN(c2cn[nH]c(=O)c2Cl)CC1 | 1000 to 5000 nM
CCc1ncccc1[C@@H](CC)N1CCN(c2cn[nH]c(=O)c2C#N)CC1 | 0.01 to 1000 nM
CC(F)(F)c1ccccc1CC1(O)CCN(c2cn[nH]c(=O)c2Cl)CC1 | 0.01 to 1000 nM

Same assay, conditions: Table 10, read-out: TRPCS-FLIPR IC50

SMILES | IC50
C[C@@H]1Cc2c(nnn2[C@H](C)c2ccc(F)cc2C(F)(F)F)CN1c1cn[nH]c(=O)c1Cl | 0.01 to 1000 nM
C[C@H](c1ccc(F)cc1C(F)(F)F)n1[nH]c(=O)c2c1CCN(c1cn[nH]c(=O)c1Cl)C2 | 0.01 to 1000 nM
COc1nn(Cc2ccccc2C(F)(F)F)c2c1CN(c1cn[nH]c(=O)c1Cl)CC2 | 0.01 to 1000 nM
CS(=O)(=O)c1nn(Cc2ccc(F)cc2C(F)F)c2c1CN(c1cn[nH]c(=O)c1Cl)CC2 | 0.01 to 1000 nM
N[C@@H](c1nn(Cc2ccccc2C(F)(F)F)c2c1CN(c1cn[nH]c(=O)c1Cl)CC2)C(F)(F)F | 1000 to 5000 nM
N[C@H](c1cc(F)ccc1Cn1nnc2c1CCN(c1cn[nH]c(=O)c1Cl)C2)C(F)(F)F | 0.01 to 1000 nM
CN(c1ccc(F)cc1C(F)(F)F)c1n[nH]c2c1CCN(c1cn[nH]c(=O)c1Cl)C2 | 0.01 to 1000 nM
O=c1[nH]ncc(C2CCc3c(nnn3Cc3ccccc3C(F)(F)F)C2)c1Cl (stereo not shown) | 10000 to 500000 nM
CC(=O)Nc1nn(Cc2ccccc2C(F)(F)F)c2c1CN(c1cn[nH]c(=O)c1Cl)CC2 | 0.01 to 1000 nM
C[C@@H](c1ccc(Cl)cc1C(F)(F)F)n1nnc2c1CCN(c1cn[nH]c(=O)c1Cl)C2 | 0.01 to 1000 nM
CC(C)C(=O)Nc1nn(Cc2ccccc2C(F)(F)F)c2c1CN(c1cn[nH]c(=O)c1Cl)CC2 | 0.01 to 1000 nM
C[C@H](c1ccc(F)cc1C(F)(F)F)c1n[nH]c2c1CCN(c1cn[nH]c(=O)c1Cl)C2 | 0.01 to 1000 nM
O=C1COCCN1Cc1nn(Cc2ccccc2C(F)F)c2c1CN(c1cn[nH]c(=O)c1Cl)CC2 | 0.01 to 1000 nM
C[C@@H](c1ccc(F)cc1C(F)F)n1nc(C(N)=O)c2c1CCN(c1cn[nH]c(=O)c1Cl)C2 | 0.01 to 1000 nM
Cn1c(=O)c2c(n1Cc1ccccc1C(F)F)CCN(c1cn[nH]c(=O)c1Cl)C2 | 0.01 to 1000 nM
O=c1[nH]ncc(N2CCc3c(c(-c4ncn[nH]4)nn3Cc3ccccc3C(F)(F)F)C2)c1Cl | 1000 to 5000 nM
CCS(=O)(=O)c1nn(Cc2ccc(F)cc2C(F)F)c2c1CN(c1cn[nH]c(=O)c1Cl)CC2 | 1000 to 5000 nM
C[C@H](c1ccc(F)cc1C(F)F)n1nnc2c1CCN(c1cn[nH]c(=O)c1Cl)C2 | 0.01 to 1000 nM
O=c1[nH]ncc(N2CCc3c(nnn3Cc3ccccc3CO)C2)c1Cl | 1000 to 5000 nM
N#Cc1nn(Cc2ccccc2C(F)(F)F)c2c1CN(c1cn[nH]c(=O)c1Cl)CC2 | 0.01 to 1000 nM

SMILES | IC50
C[C@H]1c2nnn([C@@H](C)c3ccccc3C(F)(F)F)c2CCN1c1cn[nH]c(=O)c1Cl | 0.01 to 1000 nM
C[C@@H](c1cc(F)ccc1C(F)(F)F)n1nnc2c1CCN(c1cn[nH]c(=O)c1Cl)C2 | 0.01 to 1000 nM
CCc1ncccc1[C@H](C)n1nnc2c1CCN(c1cn[nH]c(=O)c1Cl)C2 [drawing 1059] | 0.01 to 1000 nM
COC[C@H](c1ccc(F)cc1C(F)(F)F)n1cnc2c1CCN(c1cn[nH]c(=O)c1Cl)C2 | 0.01 to 1000 nM
Cn1c(=O)c2c(n1Cc1ccccc1C(F)(F)F)CCN(c1cn[nH]c(=O)c1Cl)C2 | 1000 to 5000 nM
N#Cc1nn(Cc2ccccc2C(F)F)c2c1CN(c1cn[nH]c(=O)c1Cl)CC2 | 0.01 to 1000 nM
O=c1[nH]ncc(N2CCc3c(cnn3Cc3cccnc3[C@@H](O)C(F)(F)F)C2)c1Cl | 0.01 to 1000 nM
O=c1[nH]ncc(N2CCc3c(ncn3Cc3cccnc3[C@H](O)C(F)(F)F)C2)c1Cl | 0.01 to 1000 nM
O=C(c1nn(Cc2ccccc2C(F)F)c2c1CN(c1cn[nH]c(=O)c1Cl)CC2)N1CCOCC1 | 0.01 to 1000 nM
C[C@@H](c1ccc(F)cc1CN1CCN(C)CC1)n1nnc2c1CCN(c1cn[nH]c(=O)c1Cl)C2 | 5000 to 10000 nM
CO[C@H]1CN(c2cn[nH]c(=O)c2Cl)Cc2nnn(Cc3ccccc3C(F)F)c21 | 1000 to 5000 nM
C[C@@H](c1ccccc1C(F)(F)F)n1[nH]c(=O)c2c1CCN(c1cn[nH]c(=O)c1Cl)C2 | 0.01 to 1000 nM
C[C@@H]1CCC[C@H]1Cn1nnc2c1CCN(c1cn[nH]c(=O)c1Cl)C2 | 0.01 to 1000 nM
O=c1[nH]ncc(C2=Cc3nnn(Cc4ccccc4C(F)(F)F)c3CC2)c1Cl | 1000 to 5000 nM
C[C@H](c1cc(F)ccc1C(F)(F)F)n1nnc2c1CCN(c1cn[nH]c(=O)c1Cl)C2 | 0.01 to 1000 nM
N[C@H](c1nn(Cc2ccccc2C(F)(F)F)c2c1CN(c1cn[nH]c(=O)c1Cl)CC2)C(F)(F)F | 1000 to 5000 nM
CN1CCN(Cc2nn(Cc3ccccc3C(F)F)c3c2CN(c2cn[nH]c(=O)c2Cl)CC3)C(=O)C1 [drawing 1111] | 0.01 to 1000 nM
N[C@@H](c1cc(F)ccc1Cn1nnc2c1CCN(c1cn[nH]c(=O)c1Cl)C2)C(F)(F)F | 1000 to 5000 nM
O=c1[nH]ncc(N2CCc3c(cnn3Cc3ccc(F)cc3CN3CCOCC3)C2)c1Cl | 0.01 to 1000 nM

Source: patent US20260184708A1, “PYRIDAZINONES AND METHODS OF USE THEREOF” (GFB (ABC), LLC, priority 2017, published 2026)
